Experimental data from PubChem BioAssay AID2165 (The Scripps Research Institute Molecular Screening Center, 2009).
Activity calls are given as the source filed them. Cut-off read from the data, not from the text of the source: active = IC50 below about 9 µM; inactive = the rest.

Biological target: Tyrosine-protein kinase JAK2 (Homo sapiens) (UniProt O60674)
Assay: JAK2V617F project follow-up: kinase, reporter, cytotoxicity – HEL and Ba/F3 cells, late-stage follow-up (AID 2165)
Details: JAK2V617F panel: kinase, IRF1 reporter

Chain of Tyrosine-protein kinase JAK2 (Homo sapiens) (O60674 whole entry, looked up, change not shown): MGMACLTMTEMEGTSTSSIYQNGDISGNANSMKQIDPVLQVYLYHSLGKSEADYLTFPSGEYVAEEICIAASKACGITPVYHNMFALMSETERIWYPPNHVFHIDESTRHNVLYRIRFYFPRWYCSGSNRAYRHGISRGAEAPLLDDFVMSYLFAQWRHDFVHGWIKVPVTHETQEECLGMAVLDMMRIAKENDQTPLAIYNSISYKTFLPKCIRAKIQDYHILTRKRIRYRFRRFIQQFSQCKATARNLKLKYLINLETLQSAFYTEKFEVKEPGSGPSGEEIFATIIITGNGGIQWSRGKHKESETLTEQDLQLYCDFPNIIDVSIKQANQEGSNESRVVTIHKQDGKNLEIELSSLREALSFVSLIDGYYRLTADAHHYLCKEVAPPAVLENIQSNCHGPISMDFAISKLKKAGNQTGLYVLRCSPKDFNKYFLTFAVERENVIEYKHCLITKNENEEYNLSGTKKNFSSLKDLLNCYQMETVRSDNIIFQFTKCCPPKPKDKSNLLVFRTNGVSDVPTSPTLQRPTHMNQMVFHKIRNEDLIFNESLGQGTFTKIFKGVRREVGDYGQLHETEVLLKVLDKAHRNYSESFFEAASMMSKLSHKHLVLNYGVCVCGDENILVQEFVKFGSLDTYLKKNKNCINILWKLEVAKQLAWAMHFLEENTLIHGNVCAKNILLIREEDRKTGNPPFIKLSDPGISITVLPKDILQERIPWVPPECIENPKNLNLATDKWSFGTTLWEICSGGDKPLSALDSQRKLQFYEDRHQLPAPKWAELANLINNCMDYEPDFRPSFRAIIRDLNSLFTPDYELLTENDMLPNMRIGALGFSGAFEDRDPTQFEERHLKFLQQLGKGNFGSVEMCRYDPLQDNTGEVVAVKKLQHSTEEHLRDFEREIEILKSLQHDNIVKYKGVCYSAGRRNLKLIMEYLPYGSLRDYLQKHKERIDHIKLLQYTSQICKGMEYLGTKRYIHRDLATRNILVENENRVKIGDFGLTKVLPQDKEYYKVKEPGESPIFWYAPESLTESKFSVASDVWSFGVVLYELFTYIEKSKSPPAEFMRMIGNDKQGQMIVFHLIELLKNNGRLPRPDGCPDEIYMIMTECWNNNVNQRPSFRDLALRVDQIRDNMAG

Structure (SMILES) | IC50 (Ba/F3, irf1 reporter) | IC50 (HEL, irf1 reporter) | IC50 (JAK2V617F)
O=S(=O)(c1cccs1)N1CCN(c2ccc(O)cc2)CC1 | 7.02 µM | 20.9 µM | 
Cc1c(Cc2ccccc2)c(=O)oc2c(O)c(O)ccc12 | 6.58 µM | 31.9 µM | 
N#CC(=Cc1ccc(O)c(O)c1)C(=S)NCc1ccccc1 | 0.62 µM | > 40 µM (inactive) | 1.92 µM
O=C1C=CCC(/C=C/c2ccccc2)O1 (centres undefined) | 7.41 µM | 2.05 µM | 
Cc1cccc(Nc2nc(N)nc(CCl)n2)c1C | 14.9 µM | 1.17 µM | 
COc1ccccc1OCC(=O)Nc1cc(C)ccc1O |  |  | 0.0392 µM
O=C1C=C(Nc2ccc(O)cc2)C(=O)c2ccccc21 | 7.94 µM | 34.7 µM | 
CC(C)[C@@H](CO)Nc1nc(Nc2cccc(Cl)c2)c2ncn(C(C)C)c2n1 | 0.84 µM | 1.13 µM | 0.91 µM
CCCC(=O)N(C1CC(C)C(C#N)(C#N)C1(C#N)C#N)N(C)C (centres undefined) | 0.452 µM | 5.75 µM | 
Cc1ccc(NC(=O)C(=Cc2ccc(C(=O)O)cc2)C(=O)Nc2ccc(C)cc2C)c(C)c1 | 2.9 µM | 2.8 µM | 
CN(C)C(=S)SSC(=S)N(C)C | 2.38 µM | 13.5 µM | 
Cc1nc2c(=O)n(C)c(=O)n(C)c2nc1Cl | 1.97 µM | 15.7 µM | 
COc1cc2ncnc(NC(C)C)c2cc1OC |  | > 40 µM (inactive) | > 40 µM (inactive)
CC1CCCC(NC(=O)NC(=O)CCl)C1C (centres undefined) | 3.19 µM | 31.1 µM | 
Cc1[nH]c(=O)c(C(=O)C=Cc2ccc(Br)cc2)c2c1CCCC2 | 0.98 µM | 1.03 µM | 3.64 µM
Cc1[nH]c(=O)c(C(=O)C=Cc2ccc(Cl)cc2)c2c1CCCC2 | 1.07 µM | 0.96 µM | 2.64 µM

Structure (SMILES) | IC50 (Ba/F3, irf1 reporter) | IC50 (HEL, irf1 reporter) | IC50 (JAK2V617F)
Cc1ccc(O)c(NC(=O)COc2ccc(F)cc2)c1 |  |  | 21.8 µM
O=C(CSc1nnnn1-c1ccc(F)cc1)c1ccc(O)c(O)c1 | 12.4 µM | 16.5 µM | 
COc1cc(/C=C(\C#N)C(N)=O)cc(CSc2nc3ccccc3s2)c1O | 3.35 µM | 4.15 µM | 6.78 µM
Cc1cccc(OCC(=O)Nc2ccc(C)c(C)c2)c1 |  |  | > 40 µM (inactive)
COC(=O)COc1cccc2c(=O)n(CC(=O)NCc3ccc(F)cc3)ccc12 | 16.3 µM | 7.33 µM | 
COc1cc(C=C(C#N)C(N)=O)cc(CSc2ccccc2)c1O | > 40 µM (inactive) | > 40 µM (inactive) | > 40 µM (inactive)
Cc1[nH]c(=O)c(C(=O)C=Cc2ccc(C(C)C)cc2)c2c1CCCC2 | 0.84 µM | 6.33 µM | 2.29 µM
Oc1ccc(Cl)cc1N=Cc1sc2ccccc2c1Cl | 3.42 µM | 5.53 µM | 
N#CC(C#N)=Cc1ccc(O)c(O)c1 | 0.24 µM | > 40 µM (inactive) | > 40 µM (inactive)
O=C(C=Cc1ccccc1F)c1c(-c2ccccc2)c2ccccc2[nH]c1=O | 0.39 µM | 0.39 µM | 0.39 µM
COc1ccc(-c2cnc3c(c2)CCC3(C#N)C#N)cc1 | 14.4 µM | 10.4 µM | 
O=C(C=C=Nc1ccccc1)C(=O)N=C=Cc1ccccc1 | 1.31 µM | 14.2 µM | 
CCOc1ccc(Nc2nc(N)nc(CCl)n2)cc1 | 11.2 µM | 0.452 µM | 
Cc1ccc(O)c(NC(=O)COc2ccc(C)c(C)c2)c1 |  |  | > 40 µM (inactive)
COc1ccc(Nc2nc(N)nc(CCl)n2)cc1 | > 40 µM (inactive) | 3.96 µM | 
CCC(C)Nc1ncnc2cc(OC)c(OC)cc12 (centres undefined) |  | > 40 µM (inactive) | 1.79 µM
